Entries after “also recorded” stand apart in the source; their conditions may differ.
Tests used:
[1] = molecular target: T1, human OCT2 (Homo sapiens, UniProt O15244); experiment: Concentration-dependent transport in HEK-OCT2 cells (Km, Vmax); details: concentrations up to 2000 μM; Km not calculable
T1 sequence (O15244 1-555): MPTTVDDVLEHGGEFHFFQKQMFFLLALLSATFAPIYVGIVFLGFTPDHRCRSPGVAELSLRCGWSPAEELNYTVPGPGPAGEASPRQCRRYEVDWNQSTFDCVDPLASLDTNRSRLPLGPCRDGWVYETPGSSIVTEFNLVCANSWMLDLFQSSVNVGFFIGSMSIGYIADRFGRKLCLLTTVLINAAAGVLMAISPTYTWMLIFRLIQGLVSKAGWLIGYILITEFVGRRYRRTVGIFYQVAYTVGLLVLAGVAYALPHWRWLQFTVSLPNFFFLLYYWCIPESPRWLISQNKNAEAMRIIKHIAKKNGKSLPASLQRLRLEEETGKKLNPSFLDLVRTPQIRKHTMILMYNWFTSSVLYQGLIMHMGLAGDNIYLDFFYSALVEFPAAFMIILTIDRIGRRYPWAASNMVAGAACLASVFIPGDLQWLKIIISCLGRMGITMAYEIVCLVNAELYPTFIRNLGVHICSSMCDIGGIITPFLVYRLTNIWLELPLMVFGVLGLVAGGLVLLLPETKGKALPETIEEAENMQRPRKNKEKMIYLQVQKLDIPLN
Experimental: Data are presented in percentage of respective controls (which were set to 100%) or in pmol × mg protein^–1 × min^–1 for concentration-dependent transport as mean ± SEM. All results were normalized to the mean protein concentrations of the cell lysates in the respective control experiments.
Experiments with putative biomarkers in HEK-OCT2 or HEK-MATE1 cells were performed with 6 independent biological replicates, whereas all other experiments involving HEK, MDCK, or Caco-2 cells were performed with 4 independent biological replicates. Pairwise comparisons were analyzed for statistical significance with two-tailed unpaired Student’s t test and multiple comparisons by one-way ANOVA with subsequent Tukey-Kramer multiple comparison test by using GraphPad Prism 10.0.2 (GraphPad Software). A value of P < .05 was considered as statistically significant. Km and Vmax values were determined with Michaelis-Menten enzyme kinetics curve fit using GraphPad Prism 10.0.2.

[2] = test system: OCT1; details: read-out: Km for OCT1; cited from earlier work

Structure (SMILES)	Saturation of net uptake in HEK-OCT2 cells [1]	Km [2] [µM]
Cn1cnc(CCN)c1 [1-Methylhistamine, 1-methylhistamine]	did not result in a saturation; also recorded: not saturable	
NCCc1c[nH]c2ccc(O)cc12 [Serotonin, serotonin]		197 ± 42

From article PMC12799524, “Putative new biomarkers for renal transporter-mediated drug-drug interactions: Characterization as substrates of organic cation transporter 2, multidrug and toxin extrusion protein 1, and other important drug transporters” (Drug Metabolism and Disposition, 2025)
